Earlier results on five compounds are cited in patent US5670663A (priority 1996, dated 1997).

The test system of one data set is 8A10. The following applies: monoclonal antibody 8A10.
Another data set has as its system 31-15. The following applies: antibody printed 31-15.
The test system of a further data set is 3C6. The following applies: monoclonal antibody 3C6.

In the case of `CC(=O)O[C@@]12CO[C@@H]1C[C@H](O)[C@@]1(C)C(=O)[C@H](O)C3=C(C)[C@@H](O)C[C@@](O)([C@@H](OC(=O)c4ccccc4)[C@H]21)C3(C)C` [10-deacetylbaccatin III], in the data set with 8A10, the “cross reactivity with 8A10” value is reported as “cross reacts”. Regarding `C/C=C(\C)C(=O)N[C@@H](c1ccccc1)[C@@H](O)C(=O)O[C@H]1C[C@@]2(O)[C@@H](OC(=O)c3ccccc3)[C@@H]3[C@]4(OC(C)=O)CO[C@@H]4C[C@H](O)[C@@]3(C)C(=O)[C@H](OC(C)=O)C(=C1C)C2(C)C` [Cephalomannine], the “cross reactivity with 8A10” value in the data set with 8A10 is “cross reacts”. With `CC(=O)O[C@H]1C(=O)[C@@]2(C)[C@H]([C@H](OC(=O)c3ccccc3)[C@]3(O)C[C@H](O)C(C)=C1C3(C)C)[C@]1(OC(C)=O)CO[C@@H]1C[C@@H]2O` [baccatin III], the “cross reactivity with 8A10” value with 8A10 is given as “cross reacts”. Also, in the data set on 31-15, the “relative affinity of antibody for baccatin III and its 7-epi isomer baccatin V” value is “binds with equal affinity”. For `CC(=O)O[C@H]1C(=O)[C@]2(C)[C@H](O)C[C@H]3OC[C@@]3(OC(C)=O)[C@H]2[C@H](OC(=O)c2ccccc2)[C@]2(O)C[C@H](O)C(C)=C1C2(C)C` [baccatin V], in the data set on 31-15, the “relative affinity of antibody for baccatin III and its 7-epi isomer baccatin V” value is “binds with equal affinity”.

`CC(=O)O[C@H]1C(=O)[C@@]2(C)[C@H]([C@H](OC(=O)c3ccccc3)[C@]3(O)C[C@H](OC(=O)[C@H](O)[C@@H](NC(=O)c4ccccc4)c4ccccc4)C(C)=C1C3(C)C)[C@]1(OC(C)=O)CO[C@@H]1C[C@@H]2O` [paclitaxel]: the “cross reactivity with 8A10” value with 8A10 was “cross reacts”. For the same compound, in the data set on 3C6, the “reactivity with 3C6” value was “specifically reactive”. Moreover, the “activity against breast, lung and other cancers” value with cancer (breast, lung and other cancers) is “shown activity”. The antitumor activity entry in the data set with cancer (general statement) was “significant antitumor activity”.
